The subject of test [1] is IMR90 in replicative senescence (RS). Briefly: Replicative senescence assay in human fibroblasts IMR90, Crystal Violet and SA-β-Gal. It is filed as cell-based. The following applies: 2.5 μM, passage 33, Crystal Violet and SA-β-Gal. As for the experimental part:
(§1) This assay was validated even with human fibroblasts, IMR90. Analogously to the protocol used for the MEFs, the IMR90 were seeded in 10 cm2-wide plates (3×10^5 cells/plate). Every 3 days these cells were detached by means of trypsin, counted with Trypan Blu and plated in the same number. This process was performed for 33 passages before starting the senolytic treatment. At passages 33 and 34 the senescence of these cells was tested by means of the assay of SA-β-Gal (about 78% of senescent cells).
(§2) At passage 33 non-senescent (NS) cells and cells in replicative senescence (RS) were seeded in a 96-well plate (5000 cells/well) and treated with different concentrations of Alectinib.

The next test deals with TrampC1. Nature of the test: Removal of Palbociclib-induced senescent TrampC1 prostate cancer cells, Crystal Violet and SA-β-Gal. The following applies: 5 μM for 48 hours, senescence induced with Palbociclib. It is filed as cell-based, murine. As for the experimental part:
(§3) Subsequently we tested the effects of Alectinib on cancer cell lines pre-treated with stimulator of senescence. In the specific case we used TrampC1 and PC3, two cell lines of prostate cancer, respectively murine and human lines. With the purpose of inducing the senescence in these cells, we used Palbociclib, a specific inhibitor of […] currently used in clinic in the treatment of breast cancer. Once the cells started senescence, Alectinib was added to the culture medium at the concentration of 5 μM for 48 hours.

The subject of test [2] is MEFs in replicative senescence (RS). Briefly: Replicative senescence assay in MEFs, Crystal Violet and SA-β-Gal. To be noted: 10 μM, passage 8, Crystal Violet and SA-β-Gal. It is filed as cell-based, murine. Here is the method: (§4) The senolytic activity of Alectinib was validated in the context of the replicative senescence: assay which mimes the natural process of cell ageing due to the shortening of telomers. The MEFs were seeded in 10 cm2-plates (3×10^5 cells/plate). Every 3 days these cells were detached by means of trypsin, counted with Trypan Blu and plated in the same number. This process was performed for 8 passages before starting the senolytic treatment. At passages 8 and 9 the senescence of these cells was tested by means of the assay of SA-β-Gal (about 78% of senescent cells).
(§5) At passage 8, the non-senescent cells (NS) and cells in replicative senescence (RS) were seeded in a 96-well plate (5000 cells/well) and treated at different concentrations of Alectinib.

For the next test, the system named is PC3. Briefly: Removal of Palbociclib-induced senescent PC3 prostate cancer cells, Crystal Violet and SA-β-Gal. It is filed as cell-based, human. The following applies: 5 μM for 48 hours, senescence induced with Palbociclib. As for the experimental part:
as §3

Another test concerns non-senescent (NS) MEFs. Nature of the test: Replicative senescence assay in MEFs, non-senescent cells. It is filed as cell-based, murine. To be noted: 10 μM, Crystal Violet and SA-β-Gal. As for the experimental part: as §4, §5
A further test relates to MEF Pten−/− (PICS). Briefly: Senolytic screening in PICS (Docetaxel-induced senescent MEF Pten−/−), cell viability and SA-β-Gal. To be noted: 10 μM, 48 hours, MEF Pten−/− pre-treated with Docetaxel 750 nM; versus ABT-263 positive control. It is filed as cell-based, murine. Here is the method: (§6) The platform which was devised in our laboratory is capable of identifying the senolytic compounds based upon two parameters: (1) the inhibition of the cell viability and (2) the removal of the positive cells to the assay of β-Galactosidase (SA-β-Gal, senescence marker). As positive control of the compounds at the test stage, we included ABT-263, previously identified as senolytic compound 2. At last, the senolytic potentiality of these compounds is tested on murine embryonic fibroblasts (MEF) Pten−/− and WT.
(§7) Technically the screening was performed in three passages; • Before treatment, to the culture medium of MEF (DMEM, 10%FBS, 5% P/S) Docetaxel is added, at the concentration of 750 nM for 48 hours. […] The cells were seeded in a 96-well plate at a density of 5000 cells per well. In the more external wells PBS was added, so as to be able to maintain the correct humidity inside the plate. • At last, 24 hours after the seeding of cells, the compounds of our study were added to the cells for 48 hours at the concentration of 10 μM. […]

Another test has as its system non-senescent (NS) IMR90. Briefly: Replicative senescence assay in IMR90, non-senescent cells. It is filed as cell-based, human. The following applies: 2.5 μM, Crystal Violet and SA-β-Gal. As for the experimental part: as §1, §2
A further test deals with MEF wt (NS). Briefly: Senolytic screening, specificity on non-senescent MEF wt. It is filed as cell-based, murine. To be noted: 10 μM, 48 hours; versus ABT-263. Here is the method:
as §6, §7

The test system of the next test is MEF Pten−/−. Briefly: Induction of senescence in MEF Pten−/− by Docetaxel. It is filed as cell-based, murine. To be noted: 750 nM for 48 hours. As for the experimental part: (§8) Technically the screening was performed in three passages; • Before treatment, to the culture medium of MEF (DMEM, 10%FBS, 5% P/S) Docetaxel is added, at the concentration of 750 nM for 48 hours. […] The cells were seeded in a 96-well plate at a density of 5000 cells per well. In the more external wells PBS was added, so as to be able to maintain the correct humidity inside the plate. • At last, 24 hours after the seeding of cells, the compounds of our study were added to the cells for 48 hours at the concentration of 10 μM.

A further test has as its system MEF WT. Nature of the test: Effect of Docetaxel on cell cycle of MEF WT. It is filed as cell-based, murine. The following applies: 750 nM for 48 hours. Here is the method: as §8

These results are taken from US20200405727A1, “NEW ALK INHIBITOR SENOLYTIC DRUGS” (FONDAZIONE PER L'ISTITUTO ONCOLOGICO DI RICERCA (IOR), priority 2018, published 2020).

Entries after “also recorded” stand apart in the source; their conditions may differ.

With `CCc1cc2c(cc1N1CCC(N3CCOCC3)CC1)C(C)(C)c1[nH]c3cc(C#N)ccc3c1C2=O` [Alectinib], in test [1], the “removal of senescent cells (RS IMR90)” value is reported as “capable of removing the senescent cells”. Further, in the test on TrampC1, the “removal of senescent cells (TrampC1)” value was “capability of removing the senescent cells in both cell lines; also recorded: capable of removing successfully the senescent cells”. The “removal of senescent cells (RS MEFs)” value in test [2] is reported as “capable of removing the senescent cells”. In the test on PC3, the “removal of senescent cells (PC3)” value is listed as “capability of removing the senescent cells in both cell lines; also recorded: capable of removing successfully the senescent cells”. In addition, in the test with non-senescent (NS) MEFs, the “impact on NS cells (MEFs)” value is reported as “without killing the non-senescent (NS) cells; also recorded: without impacting on the cells NS”. The “removal of senescent cells (PICS)” value in the test on MEF Pten−/− (PICS) is given as “strong capability in killing the PICS cells; also recorded: effectiveness comparable to ABT-263”. Besides, the “impact on NS cells (IMR90)” value with non-senescent (NS) IMR90 is “without killing the non-senescent (NS) cells; also recorded: without impacting on the NS cells”. Moreover, the “selectivity: impact on MEF wt (NS)” value in the test with MEF wt (NS) is listed as “non-senescent, NS, cells are kept vital; also recorded: more selective by impacting less seriously on MEF wt (NS)”.

On to `CC(=O)O[C@@]12CO[C@@H]1C[C@H](O)[C@@]1(C)C(=O)[C@H](O)C3=C(C)[C@@H](OC(=O)[C@H](O)[C@@H](NC(=O)OC(C)(C)C)c4ccccc4)C[C@@](O)([C@@H](OC(=O)c4ccccc4)[C@H]21)C3(C)C` [Docetaxel], for which the “senescence of MEF Pten−/−” value in the test with MEF Pten−/− came to 80%. The “cell cycle of MEF WT” value in the test with MEF WT is listed as “without altering the cell cycle of MEF WT”.
